Measurements taken from article PMC6149971, “In Vivo and In Vitro Activities and ADME-Tox Profile of a Quinolizidine-Modified 4-Aminoquinoline: A Potent Anti-P. falciparum and Anti-P. vivax Blood-Stage Antimalarial” (Molecules : A Journal of Synthetic Chemistry and Natural …, 2017).
Where “and” joins values, the source holds several entries; their conditions need not be identical. Equal entries are not always repeated.

Key:
P. falciparum W-2 (CQ-R) = test system: P. falciparum W-2 (CQ-R); parameters: method as in PMID 22901673; settings: 72 h incubation, pLDH method, mean of 3 experiments; data already published; cited from earlier work
CYP1A2 = biological target: T1, CYP1A2 (Homo sapiens, UniProt P05177); experiment: in vitro
T1 sequence (P05177 1-516): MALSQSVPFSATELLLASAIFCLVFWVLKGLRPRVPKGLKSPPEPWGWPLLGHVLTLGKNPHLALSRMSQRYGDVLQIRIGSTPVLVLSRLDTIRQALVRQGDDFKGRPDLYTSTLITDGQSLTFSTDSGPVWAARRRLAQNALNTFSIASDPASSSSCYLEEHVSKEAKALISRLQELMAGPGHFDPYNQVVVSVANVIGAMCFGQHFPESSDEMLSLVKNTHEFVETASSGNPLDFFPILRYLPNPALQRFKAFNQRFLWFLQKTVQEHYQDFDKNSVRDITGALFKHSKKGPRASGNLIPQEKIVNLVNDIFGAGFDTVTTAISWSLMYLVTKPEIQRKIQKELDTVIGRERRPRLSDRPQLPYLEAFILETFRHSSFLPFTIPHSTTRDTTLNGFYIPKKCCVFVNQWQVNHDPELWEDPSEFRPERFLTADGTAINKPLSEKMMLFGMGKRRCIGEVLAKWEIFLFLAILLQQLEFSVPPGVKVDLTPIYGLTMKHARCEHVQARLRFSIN

[1] = Pharmacokinetics in CD-1 mice after oral administration; assay type: in vivo, mouse; settings: male, CD-1, mouse, in vivo, po, 10 mg/kg
Method: Samples from the pharmacokinetic studies were analyzed under the following conditions: UPLC interfaced with a Premiere XE triple Quadrupole, Waters. A gradient from 2 to 100% (Water, MeOH, 5 mM Ammonium Acetate) over 1.3 min was used in Acquity HSS T3 (dimensions 2.1 by 50 mm, 1.8 µm column, 40 °C temperature, flow rate 0.5 mL/min). Detection was performed in MRM (ESI positive, Q1/Q3 330.16/152.00, Cone Voltage 45 V; Extractor 5 V; Capillary 3.4 kV). The limit of detection was 1 ng/mL. Pharmacokinetic parameters were determined by Non-Compartmental Analysis, using the linear trapezoidal rule and uniform weight.
Pharmacokinetic data were collected in mice by testing the racemate and the enantiomers at the same single dose, and vehicle-utilized for in vivo studies (see composition in paragraph 4.4). Briefly, male CD-1 mice (Charles River Laboratories) weighing 18–22 g received single dose (10 mg/kg) oral administrations of the AM1 racemate and single enantiomers, each dissolved in SSV. For each experiment, twenty-four mice/dose and three mice/time-point were used. Blood samples were collected at eight selected time-points (15, 30 and 60 min; 2, 4, 6, 8 and 24 h) under ethyl ether anaesthesia. The heparinized tubes containing blood samples were immediately placed on ice and centrifuged, and the supernatant collected and frozen at −80 °C prior to analysis. Pharmacokinetic plasma samples (spiked with internal standard) were filtered (Sirocco filter plate, Waters) under vacuum, and 5 µL analysed by LC-MS/MS.

[2] = test system: P. berghei ANKA transmission stages in Anopheles stephensi; experiment: Transmission-blocking test, P. berghei/A. stephensi model; assay type: in vivo; settings: 50 mg/kg oral
Method: (−)-AM1 was also tested in transmission-blocking and prophylactic studies using the P. berghei/A. stephensi model as described, with a few modifications.
For the transmission-blocking test, four BALB/c female mice (18–20 g) were infected i.p. with 10^7 P. berghei-infected red blood cells. Four days later, once confirmed for gametocyte carriage, two mice were treated with 50 mg/kg (−)-AM1, through the oral administration of 500 µL of a methylcellulose suspension, obtained by dissolving a 20 mg/mL ethanol stock solution in 0.5% methylcellulose to a final 9% ethanol concentration. Two mice received the vehicle only as controls. One hour after the treatment, mice were anesthetized and exposed to the bites of 100 sugar-starved female mosquitoes, at 20 °C. Ten days after the blood meal, samples of mosquito midguts from each treatment (n = 40) were dissected and P. berghei oocysts were manually counted using light microscopy at 400× magnification. Oocyst numbers were log-transformed and the geometric means were compared using the Student’s t-test.

[3] = test system: P. falciparum FCR3 (CQ-R); experiment: In vitro chemosensitivity assay (pLDH), FCR3 strain; assay type: cell-based; settings: Plasmodium falciparum, FCR3; 72 h incubation, pLDH method, mean of 3 experiments; read-out: P. falciparum IC50, FCR3
P. falciparum D10 (CQ-S) = test system: P. falciparum D10 (CQ-S); parameters: method as in PMID 22901673; settings: 72 h incubation, pLDH method, mean of 3 experiments; data already published; cited from earlier work

Clc1ccc2c(NC[C@@H]3CCCN4CCCC[C@H]34)ccnc2c1 [(−)-AM1, 7-chloro-N-(((1S,9aR)-octahydro-1H-quinolizin-1-yl)methyl)quinolin-4-amine]
IC50 (P. falciparum W-2 (CQ-R)): 53.7 nM
inhibition at 3 µM (CYP1A2): < 5%
AUC(0-t) [1]: 0.313 µM·h and 103 ng·h/mL
Cmax [1]: 84 nM and 27.6 ng/mL
MRT last [1]: 3.33 h
Tmax [1]: 0.25 h
infection intensity, average number of oocysts per midgut ([2]; BALB/c mice, read after 10 days, control 39.17, p = 0.24): 54.11 (CI95 39.77–68.45) oocysts
transmission-blocking activity ([2]; P. berghei/A. stephensi model): does not show transmission-blocking or prophylactic activity
IC50 [3]: 23.3 nM
IC50 (P. falciparum D10 (CQ-S)): 24 nM
